{"source": "patent US12479794B2", "about": "“Acetophenone oxime compound and application thereof” (Medshine Discovery Inc., priority 2020, dated 2025)", "key": {"[1]": {"biological_target": "T1, S1P4 (Homo sapiens, UniProt O95977)", "T1 construct": "expressed in transfected cells", "T1 sequence (O95977 1-384)": "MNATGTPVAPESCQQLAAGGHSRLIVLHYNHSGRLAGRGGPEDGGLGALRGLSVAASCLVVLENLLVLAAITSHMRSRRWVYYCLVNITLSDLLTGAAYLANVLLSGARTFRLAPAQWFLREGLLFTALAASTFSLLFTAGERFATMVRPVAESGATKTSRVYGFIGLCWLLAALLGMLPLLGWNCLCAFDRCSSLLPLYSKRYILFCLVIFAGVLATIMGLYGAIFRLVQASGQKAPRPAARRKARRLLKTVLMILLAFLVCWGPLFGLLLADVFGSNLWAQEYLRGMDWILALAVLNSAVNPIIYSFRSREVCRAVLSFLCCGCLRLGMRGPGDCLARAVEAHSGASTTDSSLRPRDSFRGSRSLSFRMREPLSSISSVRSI", "experiment": "In vitro agonistic activity on S1P4, PathHunter cell line", "type": "cell-based", "conditions": "PathHunter cells", "description": "(§1) Assay Example 5: In Vitro Evaluation of the Agonistic Activity of the Compound of the Present Disclosure on S1P2, S1P3 and S1P4\n(§2) Object of the assay: To detect the agonistic activity of the compound on S1P2, S1P3, and S1P4\n(§3) • 1. PathHunter cell line was expanded from freezer according to standard procedures. • 2. Cells were seeded into a white 384-well microplate in a total volume of 20 μL and incubated at 37° C. for an appropriate time prior to testing. II. Agonist Assay • 1. For the agonist assay, cells were incubated with a sample to induce a response. • 2. Stock solution was stored in a buffer at a concentration of 5 times the concentration to be tested. • 3. 5 μl of the stock solution sample at a concentration of 5 times the concentration to be tested was added to the cells and incubated at 37° C. or room temperature for 90-180 min with a vehicle concentration of 1%. III. Signal Detection • 1. […] Chemiluminescent Signal detection was performed using a PerkinElmer Envision™ instrument, and the microplate was read after signal generation. […] The activity of the compound was analyzed using the CBIS data analysis suite (ChemInnovation, CA). • 2. For the agonist mode assay, the percent activity was calculated using the following formula: % Activity=100%×(Mean RLU of the Assay Sample−Mean RLU of the Blank Control)/(Mean MAX Control Ligand−Mean RLU of the Blank Control)."}, "[2]": {"experiment": "Pharmacokinetic evaluation in SD rats (iv and oral)", "type": "in vivo, Sprague Dawley rats", "conditions": "1 mg/kg", "description": "Assay Example 2: Pharmacokinetic Evaluation of Compounds in Rats\nObject of the assay: To evaluate the in vivo pharmacokinetics of the compounds in SD rats\nSprague Dawley rats (male, 200-300 g, 7-9 weeks old, Shanghai SLAC)\nThe pharmacokinetic characteristics of the compounds in rodents after intravenous injection and oral administration were assayed according to the standard protocol. In the assay, the candidate compounds were formulated into clear solutions and administered to rats by single intravenous injection and oral administration. The vehicle for intravenous injection and oral administration was DMSO and 10% hydroxypropyl β-cyclodextrin in water (DMSO:10% hydroxypropyl β-cyclodextrin in water=5:95). Whole blood samples were collected within 48 hours, and centrifuged at 3000 g for 15 minutes. The supernatant was separated to give plasma samples. 4 times the volume of acetonitrile solution containing internal standard was added to precipitate protein. The resulting mixture was centrifuged and the supernatant was taken out. An equal volume of water was added and the mixture was centrifuged. The supernatant was taken out, and injected as a sample to quantitatively analyze the plasma drug concentration by LC-MS/MS analysis method. The pharmacokinetic parameters, such as peak concentration, time to peak, clearance rate, half-life, area under drug-time curve, bioavailability, etc., were calculated."}, "[3]": {"biological_target": "T2, S1P3 (Homo sapiens, UniProt Q99500)", "T2 construct": "expressed in transfected cells", "T2 sequence (Q99500 whole entry)": "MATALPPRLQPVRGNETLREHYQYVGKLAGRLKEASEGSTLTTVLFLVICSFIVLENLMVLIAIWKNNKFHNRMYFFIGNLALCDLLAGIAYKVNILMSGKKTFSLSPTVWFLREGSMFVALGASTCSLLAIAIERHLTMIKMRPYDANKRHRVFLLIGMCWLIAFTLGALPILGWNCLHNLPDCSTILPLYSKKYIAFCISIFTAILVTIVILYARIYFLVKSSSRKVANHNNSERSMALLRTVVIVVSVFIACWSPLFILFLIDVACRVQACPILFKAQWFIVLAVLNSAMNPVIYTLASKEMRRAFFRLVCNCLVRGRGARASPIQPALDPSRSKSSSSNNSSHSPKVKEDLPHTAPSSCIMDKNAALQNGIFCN", "experiment": "In vitro agonistic activity on S1P3, PathHunter cell line", "type": "cell-based", "conditions": "PathHunter cells", "description": "as §1, §2, §3"}}, "note": "Marks after values point to notes of the source that are not given here.", "data": [{"smiles": "CC(=NOCc1ccc(OC(C)C)c(C(F)(F)F)c1)c1ccc2c(c1)CCC2N1CC(C(=O)O)C1", "note": "(single isomer, unassigned) [Compound 32B]", "values": [{"measurement": "EC50", "setting": "[1]", "result": "> 300", "unit": "nM"}, {"measurement": "Half life T1/2 (PO)", "setting": "[2]; iv 1.0 mg/kg only (head prints PO)", "result": 8.3, "unit": "h"}, {"measurement": "Area under drug-time curve AUC0-last iv", "setting": "[2]; iv 1.0 mg/kg", "result": "7483* nM · hr"}, {"measurement": "Clearance rate CL", "setting": "[2]; iv 1.0 mg/kg", "result": 3.97, "unit": "mL/min/kg"}, {"measurement": "Distribution in tissue Vdss", "setting": "[2]; iv 1.0 mg/kg", "result": 2.7, "unit": "L/kg"}, {"measurement": "EC50", "setting": "[3]", "result": "> 300", "unit": "nM"}]}]}
